Source: PubChem BioAssay AID1919007 (Molecular Pharmacology Branch, DTP, NCI, 2023)

System: A498 complex spheroids with HUVEC/MSC, growth
Test: Anticancer human tumor A498 cell line growth inhibition [AhR];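 note: seven day exposure starting three days after spheroid seeding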;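 for viability, T/C: luminescence signal used as a surrogate for viable cells; luminescence viability scaled so 100% equals DMSO vehicle wells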
Conditions: for IC50: curve of first compound; for viability, T/C: stronger effect = lower value
Procedure, shortened: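 Complex tumor spheroids co-cultured with HUVEC and human MSC stroma; AhR antagonists tested in combination with standard-of-care and investigational agents. Top concentration at or near clinical Cmax (else 10 microM), half-log dilutions; growth expressed as percent test/control.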

[1] = second compound 0.1 µM, first compound 0.0316 µM
[2] = second compound 0.1 µM, first compound 0.1 µM
[3] = second compound 0.316 µM, first compound 0.0316 µM
[4] = second compound 0.316 µM, first compound 0.1 µM
[5] = second compound 1 µM, first compound 0.0316 µM
[6] = second compound 1 µM, first compound 0.1 µM
[7] = second compound 3.16 µM, first compound 0.0316 µM
[8] = second compound 3.16 µM, first compound 0.1 µM
[9] = second compound 10 µM, first compound 0.0316 µM
[10] = second compound 10 µM, first compound 0.1 µM

Compound: CC1(C)CCC(CN2CCN(c3ccc(C(=O)NS(=O)(=O)c4ccc(NCC5CCOCC5)c([N+](=O)[O-])c4)c(Oc4cnc5[nH]ccc5c4)c3)CC2)=C(c2ccc(Cl)cc2)C1 + CC(CO)NC(=O)c1cc(-c2ccc(Cl)cc2)nn(-c2cnn(C)c2)c1=O
- IC50 (second compound 0.1 µM): 5.41 µM
- IC50 (second compound 0.316 µM): 5.05 µM
- IC50 (second compound 1 µM): 4.9 µM
- IC50 (second compound 3.16 µM): 3.97 µM
- IC50 (second compound 10 µM): 3.8 µM
- viability, T/C [1]: 98.3%
- viability, T/C [2]: 98%
- viability, T/C (second compound 0.1 µM, first compound 0.316 µM): 94.3%
- viability, T/C (second compound 0.1 µM, first compound 1 µM): 86.4%
- viability, T/C (second compound 0.1 µM, first compound 3.16 µM): 75.1%
- viability, T/C (second compound 0.1 µM, first compound 10 µM): 23.6%
- viability, T/C [3]: 91.1%
- viability, T/C [4]: 92.3%
- viability, T/C (second compound 0.316 µM, first compound 0.316 µM): 85.7%
- viability, T/C (second compound 0.316 µM, first compound 1 µM): 84.7%
- viability, T/C (second compound 0.316 µM, first compound 3.16 µM): 69.7%
- viability, T/C (second compound 0.316 µM, first compound 10 µM): 21.6%
- viability, T/C [5]: 82.5%
- viability, T/C [6]: 85.1%
- viability, T/C (second compound 1 µM, first compound 0.316 µM): 86.4%
- viability, T/C (second compound 1 µM, first compound 1 µM): 79.5%
- viability, T/C (second compound 1 µM, first compound 3.16 µM): 68.8%
- viability, T/C (second compound 1 µM, first compound 10 µM): 20.3%
- viability, T/C [7]: 77.5%
- viability, T/C [8]: 79.4%
- viability, T/C (second compound 3.16 µM, first compound 0.316 µM): 79.4%
- viability, T/C (second compound 3.16 µM, first compound 1 µM): 63.3%
- viability, T/C (second compound 3.16 µM, first compound 3.16 µM): 61.2%
- viability, T/C (second compound 3.16 µM, first compound 10 µM): 20.6%
- viability, T/C [9]: 64.3%
- viability, T/C [10]: 69.5%
- viability, T/C (second compound 10 µM, first compound 0.316 µM): 66.1%
- viability, T/C (second compound 10 µM, first compound 1 µM): 59.4%
- viability, T/C (second compound 10 µM, first compound 3.16 µM): 56.8%
- viability, T/C (second compound 10 µM, first compound 10 µM): 22.4%

Compound: CCN(c1cc(-c2ccc(CN3CCOCC3)cc2)cc(C(=O)NCc2c(C)cc(C)[nH]c2=O)c1C)C1CCOCC1 + CC(CO)NC(=O)c1cc(-c2ccc(Cl)cc2)nn(-c2cnn(C)c2)c1=O
- IC50 (second compound 0.1 µM): > 3 µM
- IC50 (second compound 0.316 µM): > 3 µM
- IC50 (second compound 1 µM): > 3 µM
- IC50 (second compound 3.16 µM): > 3 µM
- IC50 (second compound 10 µM): > 3 µM
- viability, T/C (second compound 0.1 µM, first compound 0.00949 µM): 99.8%
- viability, T/C (second compound 0.1 µM, first compound 0.03 µM): 95%
- viability, T/C (second compound 0.1 µM, first compound 0.0949 µM): 97.8%
- viability, T/C (second compound 0.1 µM, first compound 0.3 µM): 95.6%
- viability, T/C (second compound 0.1 µM, first compound 0.949 µM): 102%
- viability, T/C (second compound 0.1 µM, first compound 3 µM): 103%
- viability, T/C (second compound 0.316 µM, first compound 0.00949 µM): 93.2%
- viability, T/C (second compound 0.316 µM, first compound 0.03 µM): 101%
- viability, T/C (second compound 0.316 µM, first compound 0.0949 µM): 97.8%
- viability, T/C (second compound 0.316 µM, first compound 0.3 µM): 93.3%
- viability, T/C (second compound 0.316 µM, first compound 0.949 µM): 96.1%
- viability, T/C (second compound 0.316 µM, first compound 3 µM): 98.9%
- viability, T/C (second compound 1 µM, first compound 0.00949 µM): 94.4%
- viability, T/C (second compound 1 µM, first compound 0.03 µM): 95.8%
- viability, T/C (second compound 1 µM, first compound 0.0949 µM): 103%
- viability, T/C (second compound 1 µM, first compound 0.3 µM): 92.3%
- viability, T/C (second compound 1 µM, first compound 0.949 µM): 95.4%
- viability, T/C (second compound 1 µM, first compound 3 µM): 97.4%
- viability, T/C (second compound 3.16 µM, first compound 0.00949 µM): 84.3%
- viability, T/C (second compound 3.16 µM, first compound 0.03 µM): 96.2%
- viability, T/C (second compound 3.16 µM, first compound 0.0949 µM): 101%
- viability, T/C (second compound 3.16 µM, first compound 0.3 µM): 88.5%
- viability, T/C (second compound 3.16 µM, first compound 0.949 µM): 85.6%
- viability, T/C (second compound 3.16 µM, first compound 3 µM): 102%
- viability, T/C (second compound 10 µM, first compound 0.00949 µM): 72.7%
- viability, T/C (second compound 10 µM, first compound 0.03 µM): 77.5%
- viability, T/C (second compound 10 µM, first compound 0.0949 µM): 83.3%
- viability, T/C (second compound 10 µM, first compound 0.3 µM): 75.3%
- viability, T/C (second compound 10 µM, first compound 0.949 µM): 70.3%
- viability, T/C (second compound 10 µM, first compound 3 µM): 75.9%

Compound: Cn1ncnc1C1c2n[nH]c(=O)c3cc(F)cc(c23)NC1c1ccc(F)cc1 (stereo not given) + CC(CO)NC(=O)c1cc(-c2ccc(Cl)cc2)nn(-c2cnn(C)c2)c1=O
- IC50 (second compound 0.1 µM): > 0.1 µM
- IC50 (second compound 0.316 µM): > 0.1 µM
- IC50 (second compound 1 µM): > 0.1 µM
- IC50 (second compound 3.16 µM): > 0.1 µM
- IC50 (second compound 10 µM): > 0.1 µM
- viability, T/C (second compound 0.1 µM, first compound 0.000316 µM): 100%
- viability, T/C (second compound 0.1 µM, first compound 0.001 µM): 102%
- viability, T/C (second compound 0.1 µM, first compound 0.00316 µM): 106%
- viability, T/C (second compound 0.1 µM, first compound 0.01 µM): 95.1%
- viability, T/C [1]: 91.4%
- viability, T/C [2]: 92.4%
- viability, T/C (second compound 0.316 µM, first compound 0.000316 µM): 99.5%
- viability, T/C (second compound 0.316 µM, first compound 0.001 µM): 103%
- viability, T/C (second compound 0.316 µM, first compound 0.00316 µM): 101%
- viability, T/C (second compound 0.316 µM, first compound 0.01 µM): 88.5%
- viability, T/C [3]: 87.6%
- viability, T/C [4]: 87.8%
- viability, T/C (second compound 1 µM, first compound 0.000316 µM): 100%
- viability, T/C (second compound 1 µM, first compound 0.001 µM): 95.7%
- viability, T/C (second compound 1 µM, first compound 0.00316 µM): 103%
- viability, T/C (second compound 1 µM, first compound 0.01 µM): 94.1%
- viability, T/C [5]: 93.5%
- viability, T/C [6]: 91.2%
- viability, T/C (second compound 3.16 µM, first compound 0.000316 µM): 91%
- viability, T/C (second compound 3.16 µM, first compound 0.001 µM): 94.1%
- viability, T/C (second compound 3.16 µM, first compound 0.00316 µM): 92.1%
- viability, T/C (second compound 3.16 µM, first compound 0.01 µM): 80.2%
- viability, T/C [7]: 77.8%
- viability, T/C [8]: 79.1%
- viability, T/C (second compound 10 µM, first compound 0.000316 µM): 74.3%
- viability, T/C (second compound 10 µM, first compound 0.001 µM): 71.7%
- viability, T/C (second compound 10 µM, first compound 0.00316 µM): 75.9%
- viability, T/C (second compound 10 µM, first compound 0.01 µM): 69%
- viability, T/C [9]: 68.5%
- viability, T/C [10]: 67.1%
